Reference: paper doi:10.1101/2021.06.06.447270v1 (biorxiv, 2021)

Biological target: hCD36ecto (CD36ecto; human CD36 ectodomain) (Homo sapiens, UniProt P16671)
Assay: isothermal titration calorimetry
Format: binding

Sequence of hCD36ecto (CD36ecto; human CD36 ectodomain) (P16671 30-439 limits assumed): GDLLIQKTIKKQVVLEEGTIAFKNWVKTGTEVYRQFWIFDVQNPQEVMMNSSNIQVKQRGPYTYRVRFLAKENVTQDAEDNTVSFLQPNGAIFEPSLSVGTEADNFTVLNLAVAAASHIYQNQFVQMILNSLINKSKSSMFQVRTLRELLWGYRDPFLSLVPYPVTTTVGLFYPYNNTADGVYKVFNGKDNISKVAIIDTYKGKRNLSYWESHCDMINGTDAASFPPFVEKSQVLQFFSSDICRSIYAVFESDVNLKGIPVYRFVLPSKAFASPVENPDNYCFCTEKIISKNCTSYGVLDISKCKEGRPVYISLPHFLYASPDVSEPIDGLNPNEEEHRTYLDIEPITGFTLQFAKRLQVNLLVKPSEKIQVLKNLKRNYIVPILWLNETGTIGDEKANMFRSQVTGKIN

**Q.** For `C=CC1=C(C)C2=Cc3c(C=C)c(C)c4[n]3[Fe]([Cl])[n]3c(c(C)c(CCC(=O)O)c3=CC3=NC(=C4)C(C)=C3CCC(=O)O)=CC1=N2` [hemin], which Kd is on record?
**A.** 1260 ± 240 nM
